Results from PubChem BioAssay (NCI).
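Dose response: 5 concentrations. Exposure: 48 h. Format: 96-well plates. Endpoint: linear interpolation; highest concentration if not reached. At the TGI there is no net growth.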

Experiments:
Test in all cases: NCI tumour cell line growth inhibition, 48 h
HL-60(TB) leukemia = test system: HL-60(TB) leukemia
OVCAR-8 ovarian = test system: OVCAR-8 ovarian
BT-549 breast = test system: BT-549 breast
SK-OV-3 ovarian = test system: SK-OV-3 ovarian
OVCAR-4 ovarian = test system: OVCAR-4 ovarian
SK-MEL-28 melanoma = test system: SK-MEL-28 melanoma
KM12 colon = test system: KM12 colon
SN12C renal = test system: SN12C renal
SF-268 CNS = test system: SF-268 CNS
SK-MEL-2 melanoma = test system: SK-MEL-2 melanoma
RPMI-8226 leukemia = test system: RPMI-8226 leukemia
UACC-62 melanoma = test system: UACC-62 melanoma
SK-MEL-5 melanoma = test system: SK-MEL-5 melanoma
NCI-H460 lung = test system: NCI-H460 lung
A549 NSCLC = test system: A549 NSCLC
MDA-MB-435 = test system: MDA-MB-435
K-562 leukemia = test system: K-562 leukemia
CAKI-1 renal = test system: CAKI-1 renal
HCT-15 colon = test system: HCT-15 colon
OVCAR-5 ovarian = test system: OVCAR-5 ovarian
SF-539 CNS = test system: SF-539 CNS
SF-295 CNS = test system: SF-295 CNS
UO-31 renal = test system: UO-31 renal
SNB-75 CNS = test system: SNB-75 CNS
MCF7 breast = test system: MCF7 breast
SW-620 colon = test system: SW-620 colon
T-47D breast = test system: T-47D breast
MALME-3M melanoma = test system: MALME-3M melanoma
NCI-H23 lung = test system: NCI-H23 lung
UACC-257 melanoma = test system: UACC-257 melanoma
HT29 colon = test system: HT29 colon
HS 578T breast = test system: HS 578T breast
PC-3 prostate = test system: PC-3 prostate
ACHN renal = test system: ACHN renal
RXF 393 renal = test system: RXF 393 renal
TK-10 renal = test system: TK-10 renal
786-0 renal = test system: 786-0 renal
NCI/ADR-RES ovarian = test system: NCI/ADR-RES ovarian
HCT-116 colon = test system: HCT-116 colon
IGROV1 ovarian = test system: IGROV1 ovarian
EKVX NSCLC = test system: EKVX NSCLC
HOP-62 NSCLC = test system: HOP-62 NSCLC
LOX IMVI melanoma = test system: LOX IMVI melanoma
MDA-N = test system: MDA-N
U251 CNS = test system: U251 CNS
A498 renal = test system: A498 renal
NCI-H522 lung = test system: NCI-H522 lung
NCI-H226 lung = test system: NCI-H226 lung
OVCAR-3 ovarian = test system: OVCAR-3 ovarian
MDA-MB-231 breast = test system: MDA-MB-231 breast
M14 melanoma = test system: M14 melanoma
HOP-92 NSCLC = test system: HOP-92 NSCLC
HCC-2998 colon = test system: HCC-2998 colon
COLO 205 colon = test system: COLO 205 colon
CCRF-CEM leukemia = test system: CCRF-CEM leukemia
SNB-19 CNS = test system: SNB-19 CNS
DU-145 prostate = test system: DU-145 prostate
MOLT-4 leukemia = test system: MOLT-4 leukemia
SR leukemia = test system: SR leukemia

For O=C(Cc1nc2ccc(C(=O)c3ccccc3)cc2[nH]c1=O)C(=O)Nc1ccc(Br)cc1, the TGI (HL-60(TB) leukemia) was over 100 µM, the TGI (OVCAR-8 ovarian) was over 100 µM and the TGI (BT-549 breast) was over 100 µM. The TGI (SK-OV-3 ovarian) was over 100 µM, the TGI (OVCAR-4 ovarian) was over 100 µM and the TGI (SK-MEL-28 melanoma) was over 100 µM. The TGI (KM12 colon) was over 100 µM, the TGI (SN12C renal) was over 100 µM and the TGI (SF-268 CNS) was over 100 µM. For the same compound, the TGI (SK-MEL-2 melanoma) was over 100 µM, the TGI (RPMI-8226 leukemia) was over 100 µM and the TGI (UACC-62 melanoma) was over 100 µM. It also gave a TGI (SK-MEL-5 melanoma) of over 100 µM, a TGI (NCI-H460 lung) of over 100 µM and a TGI (A549 NSCLC) of over 100 µM. It also gave a TGI (MDA-MB-435) of over 100 µM, a TGI (K-562 leukemia) of over 100 µM and a TGI (CAKI-1 renal) of over 100 µM. It also gave a TGI (HCT-15 colon) of over 100 µM, a TGI (OVCAR-5 ovarian) of over 100 µM and a TGI (SF-539 CNS) of over 100 µM. For the same compound, the TGI (SF-295 CNS) was over 100 µM, the TGI (UO-31 renal) was over 100 µM and the TGI (SNB-75 CNS) was over 100 µM. For the same compound, the TGI (MCF7 breast) was over 100 µM, the TGI (SW-620 colon) was over 100 µM and the TGI (T-47D breast) was over 100 µM. It also gave a TGI (MALME-3M melanoma) of over 100 µM, a TGI (NCI-H23 lung) of over 100 µM and a TGI (UACC-257 melanoma) of over 100 µM. For the same compound, the TGI (HT29 colon) was over 100 µM, the TGI (HS 578T breast) was over 100 µM and the TGI (PC-3 prostate) was over 100 µM. It also gave a TGI (ACHN renal) of over 100 µM, a TGI (RXF 393 renal) of over 100 µM and a TGI (TK-10 renal) of over 100 µM. For the same compound, the TGI (786-0 renal) was over 100 µM, the TGI (NCI/ADR-RES ovarian) was over 100 µM and the TGI (HCT-116 colon) was over 100 µM. For the same compound, the TGI (IGROV1 ovarian) was over 100 µM, the TGI (EKVX NSCLC) was over 100 µM and the TGI (HOP-62 NSCLC) was over 100 µM. It also gave a TGI (LOX IMVI melanoma) of over 100 µM, a TGI (MDA-N) of over 100 µM and a TGI (U251 CNS) of over 100 µM. It also gave a TGI (A498 renal) of over 100 µM, a TGI (NCI-H522 lung) of over 100 µM and a TGI (NCI-H226 lung) of over 100 µM. For the same compound, the TGI (OVCAR-3 ovarian) was over 100 µM, the TGI (MDA-MB-231 breast) was over 100 µM and the TGI (M14 melanoma) was over 100 µM. The TGI (HOP-92 NSCLC) was over 100 µM.
[N-]=[N+]=Nc1c(Cl)c(=O)n(-c2ccccc2)c2ccccc12 gave a TGI (HL-60(TB) leukemia) of over 100 µM, a TGI (BT-549 breast) of 39.2 µM and a TGI (HCC-2998 colon) of 42.7 µM. For the same compound, the TGI (COLO 205 colon) was 47.1 µM, the TGI (SK-OV-3 ovarian) was over 100 µM and the TGI (OVCAR-4 ovarian) was 34.7 µM. For the same compound, the TGI (CCRF-CEM leukemia) was 56.6 µM, the TGI (SK-MEL-28 melanoma) was 32.1 µM and the TGI (KM12 colon) was over 100 µM. The TGI (SN12C renal) was 51.2 µM, the TGI (SF-268 CNS) was 43.9 µM and the TGI (SK-MEL-2 melanoma) was 53.2 µM. The TGI (RPMI-8226 leukemia) was over 100 µM, the TGI (UACC-62 melanoma) was 29.4 µM and the TGI (SK-MEL-5 melanoma) was 18.5 µM. The TGI (NCI-H460 lung) was over 100 µM, the TGI (A549 NSCLC) was over 100 µM and the TGI (MDA-MB-435) was 35 µM. It also gave a TGI (K-562 leukemia) of 49 µM, a TGI (SNB-19 CNS) of over 100 µM and a TGI (CAKI-1 renal) of 50.5 µM. It also gave a TGI (HCT-15 colon) of 43.7 µM, a TGI (OVCAR-5 ovarian) of 42.4 µM and a TGI (SF-539 CNS) of 42.3 µM. It also gave a TGI (SF-295 CNS) of over 100 µM, a TGI (UO-31 renal) of 52.6 µM and a TGI (SNB-75 CNS) of 50.8 µM. It also gave a TGI (MCF7 breast) of 38.7 µM, a TGI (SW-620 colon) of 31 µM and a TGI (T-47D breast) of 28.9 µM. For the same compound, the TGI (MALME-3M melanoma) was 43.9 µM, the TGI (NCI-H23 lung) was 36.7 µM and the TGI (UACC-257 melanoma) was 47.1 µM. It also gave a TGI (HT29 colon) of 59.3 µM, a TGI (HS 578T breast) of 76.9 µM and a TGI (PC-3 prostate) of 70 µM. It also gave a TGI (ACHN renal) of 49.2 µM, a TGI (RXF 393 renal) of 30.1 µM and a TGI (DU-145 prostate) of over 100 µM. For the same compound, the TGI (786-0 renal) was 38.6 µM, the TGI (NCI/ADR-RES ovarian) was over 100 µM and the TGI (HCT-116 colon) was 33.4 µM. For the same compound, the TGI (IGROV1 ovarian) was 30.5 µM, the TGI (MOLT-4 leukemia) was 38.4 µM and the TGI (HOP-62 NSCLC) was 58.6 µM. The TGI (LOX IMVI melanoma) was 29.5 µM, the TGI (MDA-N) was 52.9 µM and the TGI (OVCAR-3 ovarian) was 39 µM. For the same compound, the TGI (M14 melanoma) was 36.3 µM, the TGI (SR leukemia) was over 100 µM and the TGI (HOP-92 NSCLC) was 38.3 µM.
